Measurements reported in the supplement of paper PMC10307832.

Key:
Assay in all cases: relative viability (nuclei count vs DMSO), 5 days (fraction); higher = more cells survive
BEN = system: BEN
Procedure, shortened: (§1)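 Relative viability is defined as nuclei in treated wells over nuclei in vehicle wells. Duplicate plates were run and medians reported. Lung cancer cell lines in 1536-well plates were dosed by pin tool one day after seeding, with one drug or with a fixed anchor-drug dose plus five library-drug doses (not always all listed) in √10 steps, and nuclei were counted after 5 days.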

NCI-H2085 = system: NCI-H2085
Procedure, shortened: as §1

LOU-NH91 = system: LOU-NH91
Procedure, shortened: as §1

LCLC-103H = system: LCLC-103H
Procedure, shortened: as §1

RERF-LC-KJ = system: RERF-LC-KJ
Procedure, shortened: as §1

A-427 = system: A-427
Procedure, shortened: as §1

CAL-12T = system: CAL-12T
Procedure, shortened: as §1

NCI-H460 = system: NCI-H460
Procedure, shortened: as §1

NCI-H727 = system: NCI-H727
Procedure, shortened: as §1

HARA = system: HARA
Procedure, shortened: as §1

NCI-H647 = system: NCI-H647
Procedure, shortened: as §1

ABC-1 = system: ABC-1
Procedure, shortened: as §1

NCI-H520 = system: NCI-H520
Procedure, shortened: as §1

NCI-H1944 = system: NCI-H1944
Procedure, shortened: as §1

NCI-H661 = system: NCI-H661
Procedure, shortened: as §1

NCI-H1651 = system: NCI-H1651
Procedure, shortened: as §1

NCI-H2126 = system: NCI-H2126
Procedure, shortened: as §1

NCI-H1975 = system: NCI-H1975
Procedure, shortened: as §1

NCI-H596 = system: NCI-H596
Procedure, shortened: as §1

NCI-H838 = system: NCI-H838
Procedure, shortened: as §1

NCI-H1734 = system: NCI-H1734
Procedure, shortened: as §1

NCI-H1666 = system: NCI-H1666
Procedure, shortened: as §1

CCNC(=O)c1noc(-c2cc(C(C)C)c(O)cc2O)c1-c1ccc(CN2CCOCC2)cc1 [Luminespib] + C[C@@H](Oc1cc(-c2cnn(C3CCNCC3)c2)cnc1N)c1c(Cl)ccc(F)c1Cl [Crizotinib] (partner 1 µM)
relative viability (BEN; first compound 0.002 µM): 0.792 | relative viability (BEN; first compound 0.006325 µM): 0.834 | relative viability (BEN; first compound 0.02 µM): 0.416 | relative viability (BEN; first compound 0.06325 µM): 0.341 | relative viability (BEN; first compound 0.2 µM): 0.203 | relative viability (NCI-H2085; first compound 0.002 µM): 1.04 | relative viability (NCI-H2085; first compound 0.006325 µM): 0.953 | relative viability (NCI-H2085; first compound 0.02 µM): 0.948 | relative viability (NCI-H2085; first compound 0.06325 µM): 0.383 | relative viability (NCI-H2085; first compound 0.2 µM): 0.272 | relative viability (LOU-NH91; first compound 0.002 µM): 0.765 | relative viability (LOU-NH91; first compound 0.006325 µM): 0.726 | relative viability (LOU-NH91; first compound 0.02 µM): 0.55 | relative viability (LOU-NH91; first compound 0.06325 µM): 0.328 | relative viability (LOU-NH91; first compound 0.2 µM): 0.351 | relative viability (LCLC-103H; first compound 0.002 µM): 1.02 | relative viability (LCLC-103H; first compound 0.006325 µM): 1.04 | relative viability (LCLC-103H; first compound 0.02 µM): 0.908 | relative viability (LCLC-103H; first compound 0.06325 µM): 1.02 | relative viability (LCLC-103H; first compound 0.2 µM): 1.15 | relative viability (RERF-LC-KJ; first compound 0.002 µM): 0.817 | relative viability (RERF-LC-KJ; first compound 0.006325 µM): 0.791 | relative viability (RERF-LC-KJ; first compound 0.02 µM): 0.877 | relative viability (RERF-LC-KJ; first compound 0.06325 µM): 0.948 | relative viability (RERF-LC-KJ; first compound 0.2 µM): 0.223 | relative viability (A-427; first compound 0.002 µM): 1.09 | relative viability (A-427; first compound 0.006325 µM): 0.796 | relative viability (A-427; first compound 0.02 µM): 0.955 | relative viability (A-427; first compound 0.06325 µM): 0.873 | relative viability (A-427; first compound 0.2 µM): 0.835 | relative viability (CAL-12T; first compound 0.002 µM): 0.7 | relative viability (CAL-12T; first compound 0.006325 µM): 0.635 | relative viability (CAL-12T; first compound 0.02 µM): 0.636 | relative viability (CAL-12T; first compound 0.06325 µM): 0.06 | relative viability (CAL-12T; first compound 0.2 µM): 0.0967 | relative viability (NCI-H460; first compound 0.002 µM): 0.957 | relative viability (NCI-H460; first compound 0.006325 µM): 0.705 | relative viability (NCI-H460; first compound 0.02 µM): 0.0276 | relative viability (NCI-H460; first compound 0.06325 µM): 0.0089 | relative viability (NCI-H460; first compound 0.2 µM): 0.0097 | relative viability (NCI-H727; first compound 0.002 µM): 0.757 | relative viability (NCI-H727; first compound 0.006325 µM): 0.744 | relative viability (NCI-H727; first compound 0.02 µM): 0.739 | relative viability (NCI-H727; first compound 0.06325 µM): 0.212 | relative viability (NCI-H727; first compound 0.2 µM): 0.204 | relative viability (HARA; first compound 0.002 µM): 1.02 | relative viability (HARA; first compound 0.006325 µM): 0.957 | relative viability (HARA; first compound 0.02 µM): 1.17 | relative viability (HARA; first compound 0.06325 µM): 1.06 | relative viability (HARA; first compound 0.2 µM): 0.0699 | relative viability (NCI-H647; first compound 0.002 µM): 1.22 | relative viability (NCI-H647; first compound 0.006325 µM): 1.07 | relative viability (NCI-H647; first compound 0.02 µM): 1.15 | relative viability (NCI-H647; first compound 0.06325 µM): 0.0916 | relative viability (NCI-H647; first compound 0.2 µM): 0.0805 | relative viability (ABC-1; first compound 0.002 µM): 1.55 | relative viability (ABC-1; first compound 0.006325 µM): 0.877 | relative viability (ABC-1; first compound 0.02 µM): 1.06 | relative viability (ABC-1; first compound 0.06325 µM): 0.19 | relative viability (ABC-1; first compound 0.2 µM): 0.18 | relative viability (NCI-H520; first compound 0.002 µM): 0.831 | relative viability (NCI-H520; first compound 0.006325 µM): 0.976 | relative viability (NCI-H520; first compound 0.02 µM): 0.845 | relative viability (NCI-H520; first compound 0.06325 µM): 0.0957 | relative viability (NCI-H520; first compound 0.2 µM): 0.0995 | relative viability (NCI-H1944; first compound 0.002 µM): 1.08 | relative viability (NCI-H1944; first compound 0.006325 µM): 1.04 | relative viability (NCI-H1944; first compound 0.02 µM): 0.775 | relative viability (NCI-H1944; first compound 0.06325 µM): 0.955 | relative viability (NCI-H1944; first compound 0.2 µM): 0.97 | relative viability (NCI-H661; first compound 0.006325 µM): 0.936 | relative viability (NCI-H661; first compound 0.02 µM): 1.05 | relative viability (NCI-H661; first compound 0.06325 µM): 0.939 | relative viability (NCI-H661; first compound 0.2 µM): 0.715 | relative viability (NCI-H1651; first compound 0.002 µM): 0.85 | relative viability (NCI-H1651; first compound 0.006325 µM): 0.901 | relative viability (NCI-H1651; first compound 0.02 µM): 0.787 | relative viability (NCI-H1651; first compound 0.06325 µM): 0.813 | relative viability (NCI-H1651; first compound 0.2 µM): 0.63 | relative viability (NCI-H2126; first compound 0.002 µM): 1.08 | relative viability (NCI-H2126; first compound 0.006325 µM): 0.97 | relative viability (NCI-H2126; first compound 0.02 µM): 0.84 | relative viability (NCI-H2126; first compound 0.06325 µM): 0.993 | relative viability (NCI-H2126; first compound 0.2 µM): 0.951 | relative viability (NCI-H1975; first compound 0.002 µM): 0.975 | relative viability (NCI-H1975; first compound 0.006325 µM): 0.99 | relative viability (NCI-H1975; first compound 0.02 µM): 0.763 | relative viability (NCI-H1975; first compound 0.06325 µM): 0.147 | relative viability (NCI-H1975; first compound 0.2 µM): 0.15 | relative viability (NCI-H596; first compound 0.002 µM): 1.05 | relative viability (NCI-H596; first compound 0.006325 µM): 1 | relative viability (NCI-H596; first compound 0.06325 µM): 0.851 | relative viability (NCI-H596; first compound 0.2 µM): 0.938 | relative viability (NCI-H838; first compound 0.002 µM): 0.947 | relative viability (NCI-H838; first compound 0.006325 µM): 0.78 | relative viability (NCI-H838; first compound 0.02 µM): 0.755 | relative viability (NCI-H838; first compound 0.06325 µM): 0.285 | relative viability (NCI-H838; first compound 0.2 µM): 0.101 | relative viability (NCI-H1734; first compound 0.002 µM): 0.77 | relative viability (NCI-H1734; first compound 0.006325 µM): 0.612 | relative viability (NCI-H1734; first compound 0.02 µM): 0.566 | relative viability (NCI-H1734; first compound 0.06325 µM): 0.135 | relative viability (NCI-H1734; first compound 0.2 µM): 0.0997 | relative viability (NCI-H1666; first compound 0.002 µM): 1.04 | relative viability (NCI-H1666; first compound 0.006325 µM): 0.929 | relative viability (NCI-H1666; first compound 0.02 µM): 1.13 | relative viability (NCI-H1666; first compound 0.06325 µM): 1 | relative viability (NCI-H1666; first compound 0.2 µM): 0.756
